Experimental data published in PMC10144134, “Characterization of Potent ABCG2 Inhibitor Derived from Chromone: From the Mechanism of Inhibition to Human Extracellular Vesicles for Drug Delivery” (Pharmaceutics, 2023).
“Also recorded” adds a separate entry of the source.

Columns and labels:
ABCG2 [1] = target: T1, ABCG2 (Homo sapiens, UniProt Q9UNQ0); parameters: expressed in transfected cells; host or cells: HEK293 (stably transfected, G418 selection; gift of Dr. Attilio Di Pietro); details: read-out: IC50 of ABCG2 inhibition; cited from earlier work
T1 sequence (Q9UNQ0 1-655): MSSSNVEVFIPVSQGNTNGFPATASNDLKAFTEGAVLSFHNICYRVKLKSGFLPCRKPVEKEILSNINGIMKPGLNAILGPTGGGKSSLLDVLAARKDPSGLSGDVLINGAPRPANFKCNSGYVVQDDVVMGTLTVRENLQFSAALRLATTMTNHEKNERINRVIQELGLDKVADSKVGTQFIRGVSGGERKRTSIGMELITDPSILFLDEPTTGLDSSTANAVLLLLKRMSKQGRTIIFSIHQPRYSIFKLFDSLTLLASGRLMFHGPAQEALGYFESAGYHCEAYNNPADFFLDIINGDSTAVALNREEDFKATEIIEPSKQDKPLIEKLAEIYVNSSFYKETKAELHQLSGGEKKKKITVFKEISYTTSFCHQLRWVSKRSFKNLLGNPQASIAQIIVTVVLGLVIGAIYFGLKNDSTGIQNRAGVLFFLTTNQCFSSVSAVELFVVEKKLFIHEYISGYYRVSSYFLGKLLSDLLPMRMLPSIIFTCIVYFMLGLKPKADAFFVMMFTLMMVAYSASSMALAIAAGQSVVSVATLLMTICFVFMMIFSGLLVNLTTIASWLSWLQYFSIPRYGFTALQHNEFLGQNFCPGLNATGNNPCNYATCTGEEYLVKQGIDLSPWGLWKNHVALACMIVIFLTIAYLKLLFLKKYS

[2] = test system: implanted ABCG2-positive tumors; details: cited from earlier work
Water solubility = format: physicochemical; details: aqueous
[3] = parameters: method as in PMID 17317193; details: cited from earlier work
ABCG2 [4] = target: T1, ABCG2; test: Cell-based transport assay by flow cytometry, HEK293-ABCG2; parameters: expressed in transfected cells; host or cells: HEK293 (stably transfected, G418 selection; gift of Dr. Attilio Di Pietro)
Protocol: (§1) Cell lines (HEK293-ABCG, NIH3T3-ABCB1 and BHK21-ABCC1) were kept at 37 °C in the presence of 5% CO2 in DMEM high glucose (Gibco, Sao Paulo, Brazil) supplemented with 10% Fetal Bovine Serum (Gibco, Sao Paulo, Brazil) and 1% antibiotic (penicillin/streptomycin–Hyclone Laboratories, Logan, UT, USA). The stably transfected cells were kept with specific selection agent for each ABC transporter: ABCG2–G418 0.75 mg/mL, P-gp–Colchicine 60 ng/mL, MRP1–Methotrexate 0.1 mg/mL. The cells HEK293-ABCG2, NIH3T3-ABCB1 and BHK21-ABCC1, overexpressing ABCG2, P-gp and MRP1, respectively, were kindly provided by Dr. Attilio Di Pietro (IBCP, Lyon, France).
Cells were seeded into 24-well plates at a density of 1 × 10^5 cells/well and incubated for 48 h at 37 °C and 5% of CO2. When the confluence reached 90–95%, the medium was removed and the cells were exposed to inhibitors and substrates for 30 min at 37 °C. Then, the cell monolayer was washed with PBS at 37 °C, trypsinized and resuspended with 300 µL of cold PBS. The intracellular fluorescence was recorded by flow cytometry (FACS Calibur–Becton Dickinson, San Diego, CA, USA). At least 10,000 events were acquired. […] The inhibition percent was calculated as follows: % of inhibition = ((C − S))/((I − S)) × 100, where “C” represents the treatment with substrate + compound in test, “S” represents the treatment with substrate alone and “I” represents the treatment with substrate + reference inhibitor.
This study was approved by the Ethics Committee of SCS/UFPR (CAAE 51428521.2.0000.0102). Human blood (9 mL) was collected in tubes containing 8 mM of EGTA and centrifuged at 425× g for 10 min at room temperature. Human plasma (~4 mL) was separated in a new tube. In the tube containing blood cells (~5 mL), the same volume of RPMI (~5 mL) was added. The material was homogenized and centrifuged at 425× g for 10 min at room temperature. The supernatant was discarded, and the pellet of cells was centrifuged again at 425× g for 10 min, then, the supernatant was discarded, and the pellet was suspended in 5 mL of RPMI containing 2 mM of CaCl2. After 1 h of incubation at 37 °C, the material was centrifuged at 425× g for 10 min at 10 °C. Additionally, the tube containing the human plasma was also centrifuged at 425× g for 10 min at 10 °C. The supernatant from both tubes (human cells and plasma) was centrifuged at 4000 g for 10 min at 10 °C. The supernatant was separated and centrifuged at […] for 120 min at 10 °C. The supernatant was discarded and the pellet containing the vesicles was suspended in 60 µL of PBS. The protein concentration was quantified by Bradford assay. For each condition, 10 µL of the vesicles in PBS was diluted by adding 190 µL of PBS. […]

ABCG2 [5] = target: T1, ABCG2; test: Thermostabilization assay on ATPase activity of ABCG2; format: biochemical; parameters: expressed in transfected cells; host or cells: HEK293 (stably transfected, G418 selection; gift of Dr. Attilio Di Pietro); details: C4a 10 μM
Protocol: (§2) The thermal stability assay was performed according to previous reports. […] To evaluate the effect of C4a over thermal stability, each sample was prepared with 12.5 mM MgCl2 or 6.25 mM ATP and incubated at a temperature ranging from 37 to 71 °C for 10 min using a thermocycler C1000 Touch (Bio-Rad, Hercules, CA, USA). After incubation, 10 µL of 25 mM ATP or 50 mM MgCl2 (5 and 10 mM final concentration, respectively) was added and incubated at 37 °C/20 min to allow ATP hydrolysis. The reaction was stopped with the addition of 50 µL of Pi reagent containing 1% ammonium molybdate, 2.5 N H2SO4 and 0.014% potassium-antimony tartrate. To evaluate the absorbance, the samples were transferred to a 96-well plate (50 µL/well), then 150 µL of 0.33% sodium ascorbate solution was added. The absorbance was measured after 10 min incubation at room temperature using the microplate reader Spectramax iD3 (Molecular Devices, San Jose, CA, USA). The sensitive activity to vanadate (Vi) was calculated as the difference between the activity in the absence of Vi minus the activity in the presence of Vi at each temperature.

P-gp [6] = target: T2, P-gp (Homo sapiens, UniProt P08183); test: Thermostabilization assay on ATPase activity of P-gp; format: biochemical; parameters: made in house; host or cells: High-Five insect cells (total membrane vesicles); details: C4a 10 μM
Protocol: as §2

P-gp [7] = target: T2, P-gp; test: ATPase activity, High-Five P-gp total membrane vesicles
Protocol: (§4) The absorbance was measured after 10 min incubation at room temperature using the spectrophotometer Ultrospec 3100 pro (Amersham Biosciences, Amersham, UK) at 880 nm wavelength.

ABCG2 [8] = target: T1, ABCG2; test: ATPase activity, High-Five ABCG2 total membrane vesicles
Protocol: as §4

MRP1 = test system: T3, MRP1; test: Cell-based transport assay by flow cytometry, BHK21-ABCC1; parameters: species or system human; details: 10 µM, calcein-AM 0.2 µM
T3 construct: expressed in transfected cells; host or cells: BHK21 (stably transfected, methotrexate selection; gift of Dr. Attilio Di Pietro)
Protocol: as §1
Cells were seeded into 24-well plates at a density of 1 × 10^5 cells/well and incubated for 48 h at 37 °C and 5% of CO2. When the confluence reached 90–95%, the medium was removed and the cells were exposed to inhibitors and substrates for 30 min at 37 °C. […] The intracellular fluorescence was recorded by flow cytometry (FACS Calibur–Becton Dickinson, San Diego, CA, USA). […] The inhibition percent was calculated as follows: % of inhibition = ((C − S))/((I − S)) × 100, where “C” represents the treatment with substrate + compound in test, “S” represents the treatment with substrate alone and “I” represents the treatment with substrate + reference inhibitor.

HEK293-ABCG2 cells = test: MTT chemosensitization assay, HEK293-ABCG2; format: cell-based, human
Protocol: (§3) HEK293 WT (wild type) and HEK293-ABCG2 cells were seeded (2.5 × 10^4 cell/well) into a 96-well plate and incubated for 24 h. Cells were concomitantly treated with EVs […]C4a (0.1, 1 and 10 μM) and SN-38 (10 nM) for 72 h. After this period, the medium was removed, cells were washed with PBS (100 μL) and incubated with MTT solution (100 μL of solution 0.5 mg/mL in PBS) for 4 h. Then, the solution was removed, and the formazan crystals were dissolved with 100 μL of ethanol/DMSO (1:1). The absorbance was measured using a microplate reader at 595 nm (Bio-Rad iMark, Hercules, CA, USA).

ABCG2 [9] = target: T1, ABCG2; test: 5D3 shift assay; format: cell-based; parameters: expressed in transfected cells; host or cells: HEK293 (stably transfected, G418 selection; gift of Dr. Attilio Di Pietro); details: C4a 10 µM, Ko143 2 µM, HEK293-ABCG2
Protocol: HEK293-ABCG2 cells were seeded into 24-well plates at a density of 2 × 10^5 cells/well. When the confluence reached 90–95%, the medium was removed and the cells were exposed to inhibitors for 30 min at 37 °C. Then, the cell monolayer was washed with PBS at 37 °C, trypsinized and resuspended with 300 µL of PBS. Cells were centrifuged (1000× g for 3 min). The pellet was resuspended in 100 μL of PBS/BSA (40 μg/mL of BSA) and the primary antibody (mouse anti-human CD338 Clone 5D3, BD Pharmingen, San Diego, CA, USA) was added (1:100) for 30 min at 37 °C. Cells were centrifuged (1000× g, 3 min), the supernatant removed and the pellet resuspended with 100 μL of PBS containing the secondary antibody (goat anti-mouse conjugated with Phycoerythrin, BD Pharmingen, San Diego, CA, USA) at 1:200 for 30 min at 37 °C. Then, cells were centrifuged, the supernatant removed and the pellet was resuspended in 300 μL of PBS. The analysis was performed using a FACS Calibur (Becton Dickinson, San Diego, CA, USA).

P-gp [10] = target: T2, P-gp; test: Cell-based transport assay by flow cytometry, NIH3T3-ABCB1; details: 10 µM, rhodamine 123 10 µM
Protocol: as §1
Cells were seeded into 24-well plates at a density of 1 × 10^5 cells/well and incubated for 48 h at 37 °C and 5% of CO2. […] The intracellular fluorescence was recorded by flow cytometry (FACS Calibur–Becton Dickinson, San Diego, CA, USA). […] The inhibition percent was calculated as follows: % of inhibition = ((C − S))/((I − S)) × 100, where “C” represents the treatment with substrate + compound in test, “S” represents the treatment with substrate alone and “I” represents the treatment with substrate + reference inhibitor.
This study was approved by the Ethics Committee of SCS/UFPR (CAAE 51428521.2.0000.0102). […] The protein concentration was quantified by Bradford assay. […]

ABCG2 [11] = target: T1, ABCG2; test: Cell-based transport assay by confocal microscopy; parameters: expressed in transfected cells; host or cells: HEK293 (stably transfected, G418 selection; gift of Dr. Attilio Di Pietro); details: 10 µM, hoechst 33342 2 µM
Protocol: Cells were seeded into 24-well plates at a density of 1 × 10^5 cells/well containing coverslips for microscopy and incubated for 48 h at 37 °C and 5% of CO2. Cells that adhered to the coverslips were treated with C4a and hoechst 33342 for 30 min at 37 °C. Then, the cell monolayer was washed with PBS at 37 °C and the coverslips removed from the plate and placed on slides for microscopy. The slides were then read in a confocal microscope Nikon A1R MP + (NIKON, Tokyo, Japan) using an oil-immersed 40× objective (with the numerical aperture of 1.15). A laser of 405 nm was used for excitation and the fluorescence emission was recorded using a bandpass filter of 425–475 nm. The software Nis Elements 4.20 (NIKON, Tokyo, Japan) was used for visualization of the images.

ABCG2 versus P-gp = target: T4, ABCG2 versus P-gp (Homo sapiens, UniProt Q9UNQ0); test: in vitro; details: high-five membrane vesicles, pH 6.8
T4 sequence (Q9UNQ0 1-655): T1 sequence (Q9UNQ0 1-655)
Protocol: as §4

HEK293 WT cells = test: MTT cell viability, HEK293 WT; format: cell-based, human; details: SN38 10 nM, 72 h
Protocol: as §3

T2 sequence (P08183 whole entry): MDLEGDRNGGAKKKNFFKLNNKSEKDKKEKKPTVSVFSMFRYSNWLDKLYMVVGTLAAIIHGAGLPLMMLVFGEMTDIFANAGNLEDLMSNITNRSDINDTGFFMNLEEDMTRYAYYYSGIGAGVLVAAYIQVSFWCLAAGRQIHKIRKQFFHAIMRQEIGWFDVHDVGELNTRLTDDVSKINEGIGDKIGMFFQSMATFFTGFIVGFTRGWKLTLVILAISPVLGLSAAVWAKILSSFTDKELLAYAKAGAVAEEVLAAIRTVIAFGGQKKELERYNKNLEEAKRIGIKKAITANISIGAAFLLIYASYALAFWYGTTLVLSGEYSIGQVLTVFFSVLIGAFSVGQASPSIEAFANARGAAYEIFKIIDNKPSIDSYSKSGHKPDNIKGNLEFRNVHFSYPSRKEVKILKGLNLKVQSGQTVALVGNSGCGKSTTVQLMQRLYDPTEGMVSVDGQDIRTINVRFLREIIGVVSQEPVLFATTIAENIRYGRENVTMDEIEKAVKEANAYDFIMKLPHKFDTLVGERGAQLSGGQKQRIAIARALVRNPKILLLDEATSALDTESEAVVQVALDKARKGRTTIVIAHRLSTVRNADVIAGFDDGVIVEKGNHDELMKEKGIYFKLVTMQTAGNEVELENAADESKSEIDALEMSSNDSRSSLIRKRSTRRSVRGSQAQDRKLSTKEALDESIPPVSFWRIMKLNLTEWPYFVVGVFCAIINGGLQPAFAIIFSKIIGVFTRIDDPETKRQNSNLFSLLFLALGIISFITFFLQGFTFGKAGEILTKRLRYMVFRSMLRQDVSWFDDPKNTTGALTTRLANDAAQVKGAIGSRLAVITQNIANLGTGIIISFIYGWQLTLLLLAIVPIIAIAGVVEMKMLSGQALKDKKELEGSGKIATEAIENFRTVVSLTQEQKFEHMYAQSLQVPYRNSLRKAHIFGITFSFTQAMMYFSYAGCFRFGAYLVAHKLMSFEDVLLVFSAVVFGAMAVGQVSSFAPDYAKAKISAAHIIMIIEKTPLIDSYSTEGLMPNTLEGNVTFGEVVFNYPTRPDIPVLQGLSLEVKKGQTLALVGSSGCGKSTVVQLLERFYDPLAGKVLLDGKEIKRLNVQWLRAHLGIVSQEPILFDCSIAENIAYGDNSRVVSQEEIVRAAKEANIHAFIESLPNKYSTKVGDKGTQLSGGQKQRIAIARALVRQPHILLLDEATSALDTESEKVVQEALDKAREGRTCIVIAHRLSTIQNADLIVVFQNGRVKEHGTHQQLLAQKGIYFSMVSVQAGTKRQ

Structure (SMILES): COc1ccc2[nH]cc(CCNC(=O)c3cc(=O)c4c(OCc5ccc(Br)cc5)cccc4o3)c2c1 [MBL-II-141]
- IC50 (ABCG2 [1]): 260 nM
- growth of implanted ABCG2-positive tumors in mice ([2]; in combination with irinotecan): inhibiting the growth of implanted ABCG2-positive tumors
- solubility (Water solubility): low solubility

Structure (SMILES): COc1ccc2c(=O)c3cccc(C(=O)NCc4ccc(OC)c(OC)c4)c3[nH]c2c1 [MBLI-87]
- IC50 (ABCG2 [1]): 450 nM
- sensitization of xenografic tumors overexpressing ABCG2 to irinotecan [2]: successfully sensitized xenografic tumors overexpressing ABCG2 to irinotecan
- cytotoxicity [3]: low cytotoxicity

Structure (SMILES): COc1ccc2[nH]cc(CCNC(=O)c3cc(=O)c4c(OCc5ccccc5Br)cccc4o3)c2c1 [C4a, chromone 4a]
- IC50 (ABCG2 [1]): 86 nM
- solubility (Water solubility): low solubility
- inhibition of bodipy-prazosin efflux mediated by ABCG2 (ABCG2 [4]; 10 µM, bodipy-prazosin 0.2 µM): inhibited the efflux of all
- inhibition of mitoxantrone efflux mediated by ABCG2 (ABCG2 [4]; 10 µM, mitoxantrone 10 µM, HEK293-ABCG2): completely inhibited; also recorded: inhibited the efflux of all
- inhibition of pheophorbide-a efflux mediated by ABCG2 (ABCG2 [4]; 10 µM, pheophorbide a 10 µM): inhibited the efflux of all
- inhibition of ABCG2 by supernatant (human EV preparation) (ABCG2 [4]; C4a free in supernatant, even at lower concentration tested 0.1 µM): strongly inhibited ABCG2
- effect on thermal stability of ABCG2 (ABCG2 [5]): mild effect
- IT50, ABCG2 -ATP (ABCG2 [5]; absence of ATP): 50.01 ± 0.26 ºC
- IT50 (temperature that reduces 50% of the ATPase activity), ABCG2 +ATP (ABCG2 [5]; presence of ATP): 55.44 ± 0.25 ºC
- effect on ATP-induced thermostabilization of P-gp (P-gp [6]): preventing thermostabilization
- IT50, P-gp -ATP (P-gp [6]; absence of ATP): 50.02 ± 0.31 ºC
- EC50 (P-gp [7]): 4300 nM
- EC50 (ABCG2 [8]): 64 nM
- inhibition of calcein efflux mediated by MRP1 (MRP1): did not inhibit
- reversion of the resistance phenotype mediated by ABCG2, supernatant (HEK293-ABCG2 cells; supernatant containing C4a free at 0.1 to 10 µM + SN38 10 nM): complete reversion
- binding of conformational antibody 5D3 (ABCG2 [9]): increased the binding of 5D3
- inhibition of rhodamine 123 efflux mediated by P-gp (P-gp [10]): did not inhibit
- inhibition of hoechst 33342 efflux mediated by ABCG2 (confocal microscopy) (ABCG2 [11]): inhibited the efflux of all
- selectivity ratio at 20 min (ABCG2 versus P-gp): 67

Structure (SMILES): CCc1c2c(nc3ccc(O)cc13)-c1cc3c(c(=O)n1C2)COC(=O)[C@]3(O)CC [SN38, reference compound]
- cell viability of cells overexpressing ABCG2 (HEK293-ABCG2 cells; SN38 10 nM, 72 h, MTT): mild decrease in the cell viability
- cytotoxic effect on wild-type HEK293 cells (HEK293 WT cells): highly cytotoxic
